Experiments:
Type in all cases: biochemical
B-Raf = molecular target: T1, B-Raf (Homo sapiens, UniProt P15056); assay: AlphaScreen kinase assay, B-Raf; settings: read-out: IC50, activity toward kinase B-Raf
T1 construct: purchased Upstate Biotechnology

B-Raf V600E = molecular target: T2, B-Raf V600E (Homo sapiens, UniProt P15056, V600E); assay: AlphaScreen kinase assay, B-Raf V600E; settings: read-out: IC50, activity toward kinase B-Raf V600E
T2 construct: P4254. pFastBacBD-CDC37 BRAF D437-K722-X, V600E; His6 with pFastBac HT leader (TEV site) (N); made in house; host or cells: Sf9 (baculovirus; chaperone CDC37 co-expressed)
T2 sequence (P15056 with tags, fused parts or gaps V600E): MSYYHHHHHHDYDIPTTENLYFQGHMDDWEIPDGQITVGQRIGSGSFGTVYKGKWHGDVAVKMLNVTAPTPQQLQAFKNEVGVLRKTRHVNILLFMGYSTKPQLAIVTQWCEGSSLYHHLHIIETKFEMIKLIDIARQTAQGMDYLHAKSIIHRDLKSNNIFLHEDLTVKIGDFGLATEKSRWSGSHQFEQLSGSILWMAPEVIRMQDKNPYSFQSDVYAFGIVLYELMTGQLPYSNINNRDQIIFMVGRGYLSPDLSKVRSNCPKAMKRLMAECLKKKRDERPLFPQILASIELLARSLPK

Kit = molecular target: T3, Kit (Homo sapiens, UniProt P10721); assay: AlphaScreen kinase assay, Kit; settings: read-out: IC50, activity toward kinase Kit
T3 construct: P1332.N6 BI PTP KIT M552-K948-X COD; His6 (N); made in house; host or cells: E. coli (PTP1B co-expressed)
T3 sequence (P10721 with tags, fused parts or gaps): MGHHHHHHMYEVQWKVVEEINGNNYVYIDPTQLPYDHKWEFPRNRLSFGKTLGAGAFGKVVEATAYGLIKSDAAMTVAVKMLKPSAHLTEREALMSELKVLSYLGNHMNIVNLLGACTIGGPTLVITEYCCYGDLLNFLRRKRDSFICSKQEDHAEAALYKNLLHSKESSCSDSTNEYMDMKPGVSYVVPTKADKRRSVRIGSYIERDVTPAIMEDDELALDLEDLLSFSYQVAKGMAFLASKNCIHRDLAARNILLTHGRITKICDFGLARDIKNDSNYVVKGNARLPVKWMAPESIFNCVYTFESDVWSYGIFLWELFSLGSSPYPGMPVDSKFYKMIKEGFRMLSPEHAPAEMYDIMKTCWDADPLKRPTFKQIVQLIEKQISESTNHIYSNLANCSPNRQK

Yes = molecular target: T4, Yes (Homo sapiens, UniProt P07947); assay: Z'-Lyte FRET kinase assay (Invitrogen), Yes; settings: read-out: IC50, activity toward kinase Yes
T4 construct: purchased Invitrogen (Carlsbad, Calif.), screening service
T4 sequence (P07947 whole entry): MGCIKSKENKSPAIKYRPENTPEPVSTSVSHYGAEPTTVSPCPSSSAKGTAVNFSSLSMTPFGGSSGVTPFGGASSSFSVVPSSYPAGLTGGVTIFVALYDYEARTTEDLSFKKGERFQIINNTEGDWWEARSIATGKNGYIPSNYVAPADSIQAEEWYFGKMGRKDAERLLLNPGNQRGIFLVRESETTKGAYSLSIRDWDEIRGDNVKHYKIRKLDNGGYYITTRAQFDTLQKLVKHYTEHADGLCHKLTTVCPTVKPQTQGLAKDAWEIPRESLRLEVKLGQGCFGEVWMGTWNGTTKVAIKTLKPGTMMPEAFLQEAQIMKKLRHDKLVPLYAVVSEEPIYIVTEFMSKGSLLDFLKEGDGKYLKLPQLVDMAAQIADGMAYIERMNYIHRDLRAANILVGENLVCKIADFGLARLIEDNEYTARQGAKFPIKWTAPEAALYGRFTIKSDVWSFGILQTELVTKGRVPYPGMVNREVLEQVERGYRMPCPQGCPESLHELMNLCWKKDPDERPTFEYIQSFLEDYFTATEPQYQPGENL
Summary of the method: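 Under a compound concentration curve, the kinase acted on a dual-labelled peptide at 2 μM with ATP at 10 μM for one hour at ambient temperature (buffer pH 7.5, 1% DMSO). Phosphorylation extent came from the emission ratio after protease development.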

FGFR1 = molecular target: T5, FGFR1 (Homo sapiens, UniProt P11362, C488A/C584S); assay: AlphaScreen kinase assay, FGFR1; settings: read-out: IC50, activity toward kinase FGFR
T5 construct: P1351.pET N6 BI-PTP FGFR A458-E765-X C488A, C584S; made in house; host or cells: E. coli (PTP1B co-expressed)
T5 sequence (P11362 458-765 C488A/C584S): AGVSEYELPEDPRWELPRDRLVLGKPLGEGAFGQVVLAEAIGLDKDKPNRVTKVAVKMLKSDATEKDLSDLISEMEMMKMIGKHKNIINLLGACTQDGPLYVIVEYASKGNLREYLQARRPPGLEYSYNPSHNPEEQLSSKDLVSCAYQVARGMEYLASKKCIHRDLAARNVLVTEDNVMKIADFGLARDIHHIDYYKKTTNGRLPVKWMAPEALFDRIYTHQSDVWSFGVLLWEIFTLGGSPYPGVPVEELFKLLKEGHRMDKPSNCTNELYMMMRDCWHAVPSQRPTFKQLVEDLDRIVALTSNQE

Fms = molecular target: T6, Fms (Homo sapiens, UniProt P07333); assay: AlphaScreen kinase assay, Fms; settings: read-out: IC50, activity toward kinase Fms
T6 construct: purchased Upstate Biotechnology
T6 sequence (P07333 20-972): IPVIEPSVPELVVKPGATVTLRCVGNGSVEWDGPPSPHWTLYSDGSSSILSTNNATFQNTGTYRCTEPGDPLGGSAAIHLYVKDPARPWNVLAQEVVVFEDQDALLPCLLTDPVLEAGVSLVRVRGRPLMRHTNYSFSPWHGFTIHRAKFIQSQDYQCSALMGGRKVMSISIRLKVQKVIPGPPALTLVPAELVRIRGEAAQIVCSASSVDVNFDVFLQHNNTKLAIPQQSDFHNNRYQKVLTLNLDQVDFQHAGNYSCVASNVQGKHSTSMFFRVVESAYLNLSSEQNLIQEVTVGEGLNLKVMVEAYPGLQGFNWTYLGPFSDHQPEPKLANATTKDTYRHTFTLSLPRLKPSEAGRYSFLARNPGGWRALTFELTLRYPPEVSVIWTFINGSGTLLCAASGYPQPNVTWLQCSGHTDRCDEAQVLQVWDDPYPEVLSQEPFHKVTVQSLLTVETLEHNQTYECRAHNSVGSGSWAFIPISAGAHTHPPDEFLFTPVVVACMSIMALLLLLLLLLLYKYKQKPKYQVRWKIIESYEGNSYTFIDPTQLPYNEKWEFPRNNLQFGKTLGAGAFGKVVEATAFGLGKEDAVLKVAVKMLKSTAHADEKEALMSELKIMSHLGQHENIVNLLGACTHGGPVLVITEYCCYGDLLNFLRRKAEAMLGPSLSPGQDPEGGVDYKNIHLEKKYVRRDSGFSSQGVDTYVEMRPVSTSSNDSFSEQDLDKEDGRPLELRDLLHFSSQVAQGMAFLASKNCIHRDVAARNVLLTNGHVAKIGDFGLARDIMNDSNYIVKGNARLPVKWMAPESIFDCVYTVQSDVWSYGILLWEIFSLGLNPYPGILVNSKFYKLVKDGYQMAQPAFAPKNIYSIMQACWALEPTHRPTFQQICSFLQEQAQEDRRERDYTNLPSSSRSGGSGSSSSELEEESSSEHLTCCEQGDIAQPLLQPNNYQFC

Measured: IC50

T1 sequence (P15056 whole entry): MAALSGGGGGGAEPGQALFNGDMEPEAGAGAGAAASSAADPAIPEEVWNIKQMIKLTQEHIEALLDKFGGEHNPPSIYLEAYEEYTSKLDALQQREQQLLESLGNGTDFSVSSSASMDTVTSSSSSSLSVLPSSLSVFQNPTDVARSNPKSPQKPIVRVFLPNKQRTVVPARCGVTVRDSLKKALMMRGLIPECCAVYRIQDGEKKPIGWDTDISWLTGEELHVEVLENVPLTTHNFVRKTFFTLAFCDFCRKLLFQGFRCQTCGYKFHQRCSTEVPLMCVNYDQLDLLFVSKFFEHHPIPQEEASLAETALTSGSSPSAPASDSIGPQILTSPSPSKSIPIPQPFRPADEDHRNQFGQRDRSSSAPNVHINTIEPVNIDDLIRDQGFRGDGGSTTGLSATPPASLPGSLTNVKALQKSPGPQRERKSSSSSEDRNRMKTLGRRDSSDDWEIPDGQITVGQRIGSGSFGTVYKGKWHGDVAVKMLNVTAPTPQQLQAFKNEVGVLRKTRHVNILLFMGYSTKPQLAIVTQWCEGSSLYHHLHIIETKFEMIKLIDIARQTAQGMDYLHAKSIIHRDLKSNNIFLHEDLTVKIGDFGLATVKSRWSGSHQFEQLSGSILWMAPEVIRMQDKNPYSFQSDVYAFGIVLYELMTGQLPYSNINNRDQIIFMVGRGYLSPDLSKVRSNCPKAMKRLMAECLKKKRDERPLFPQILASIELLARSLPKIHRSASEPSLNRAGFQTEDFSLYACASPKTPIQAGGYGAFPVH

Oc1ccc(F)c(Cc2c[nH]c3ncc(Br)cc23)c1F [Compound P-0122, 3-(5-Bromo-1H-pyrrolo[2,3-b]pyridin-3-ylmethyl)-2,4-difluoro-phenol]
≤ 10 µM: B-Raf | B-Raf V600E | Kit | Yes

Cc1c(NS(C)(=O)=O)cccc1C(=O)c1c[nH]c2ncc(-c3ccccc3)cc12 [Compound P-0082, N-[2-Methyl-3-(5-phenyl-1H-pyrrolo[2,3-b]pyridine-3-carbonyl)-phenyl]-methanesulfonamide]
≤ 10 µM: all assays above

CCCCNC(=O)Nc1ccc(F)c(C(=O)c2c[nH]c3ncc(-c4cccnc4)cc23)c1F [Compound P-1318, 1-Butyl-3-[2,4-difluoro-3-(5-pyridin-3-yl-1H-pyrrolo[2,3-b]pyridine-3-carbonyl)-phenyl]-urea]
not listed: Yes
≤ 10 µM: all other assays above

Nc1cccc(-c2cnc3[nH]cc(C(=O)c4cc(O)ccc4F)c3c2)c1 [Compound P-0002]
not listed: Yes
≤ 10 µM: all other assays above

CS(=O)(=O)c1cccc(-c2cnc3[nH]cc(C(=O)c4cc(O)ccc4F)c3c2)c1 [Compound P-0008, (2-Fluoro-5-hydroxy-phenyl)-[5-(3-methanesulfonyl-phenyl)-1H-pyrrolo[2,3-b]pyridin-3-yl]-methanone]
not listed: Yes
≤ 10 µM: all other assays above

Cc1ccc(S(=O)(=O)NCc2c[nH]c3ncccc23)cc1 [Compound P-0058]
≤ 10 µM: FGFR1

O=C(c1ccc(O)cc1)c1c[nH]c2ncc(-c3cccs3)cc12 [Compound P-0024, (4-Hydroxy-phenyl)-(5-thiophen-2-yl-1H-pyrrolo[2,3-b]pyridin-3-yl)-methanone]
not listed: Fms
≤ 10 µM: all other assays above

O=C(c1cccc(O)c1)c1c[nH]c2nccc(-c3cc(F)cc(F)c3)c12 [Compound P-0039]
≤ 10 µM: B-Raf V600E | FGFR1 | Kit

COc1cc(OC)cc(C(=O)c2c[nH]c3ncc(-c4cccc(NS(C)(=O)=O)c4)cc23)c1 [Compound P-1426, N-{3-[3-(3,5-Dimethoxy-benzoyl)-1H-pyrrolo[2,3-b]pyridin-5-yl]-phenyl}-methanesulfonamide]
≤ 10 µM: B-Raf V600E | FGFR1 | Fms | Kit

OC(c1c(F)ccc(F)c1F)c1c[nH]c2ncc(-c3cccnc3)cc12 (stereo not shown) [Compound P-0101]
≤ 10 µM: FGFR1 | Fms | Kit | Yes

Nc1cccc(-c2ccnc3[nH]cc(C(=O)c4cc(F)ccc4F)c23)c1 [Compound P-0046]
≤ 10 µM: B-Raf V600E | Yes

O=C(c1ccccc1F)c1c[nH]c2nccc(-c3ccsc3)c12 [Compound P-0051]
≤ 10 µM: B-Raf V600E | Yes

CCCS(=O)(=O)Nc1ccc(F)c(C(=O)c2c[nH]c3ncc(-c4ccccc4)cc23)c1F [Compound P-0636, Propane-1-sulfonic acid [2,4-difluoro-3-(5-phenyl-1H-pyrrolo[2,3-b]pyridine-3-carbonyl)-phenyl]-amide]
≤ 10 µM: all assays above

O=C(c1cccc(O)c1F)c1c[nH]c2ncc(-c3cccs3)cc12 [Compound P-0521, (2-fluoro-3-hydroxy-phenyl)-(5-thiophen-2-yl-1H-pyrrolo[2,3-b]pyridin-3-yl)-methanone]
≤ 10 µM: B-Raf | B-Raf V600E | FGFR1 | Kit

O=C(c1cccc(O)c1)c1c[nH]c2ncc(-c3cccs3)cc12 [Compound P-0196]
not listed: Yes
≤ 10 µM: all other assays above

CCCC(=O)Nc1ccc(F)c(Cc2c[nH]c3ncc(-c4cccnc4)cc23)c1F [Compound P-1280]
not listed: Yes
≤ 10 µM: all other assays above

O=C(Nc1ccc(Cc2c[nH]c3ncccc23)cc1)Nc1cccc(C(F)(F)F)c1 [Compound P-0262, 1-[4-(1H-Pyrrolo[2,3-b]pyridin-3-ylmethyl)-phenyl]-3-(3-trifluoromethyl-phenyl)-urea]
not listed: Yes
≤ 10 µM: all other assays above

CS(=O)(=O)Nc1cccc(-c2ccnc3[nH]cc(C(=O)c4cc(F)ccc4F)c23)c1 [Compound P-0060]
≤ 10 µM: B-Raf | B-Raf V600E | Yes

O=C(c1cc(F)ccc1F)c1c[nH]c2nccc(-c3cccnc3)c12 [Compound P-0063]
≤ 10 µM: B-Raf V600E | Yes

COc1cccc(C(=O)c2c[nH]c3ncc(-c4cccc(NC(C)=O)c4)cc23)c1F [Compound P-1336, N-{3-[3-(2-Fluoro-3-methoxy-benzoyl)-1H-pyrrolo[2,3-b]pyridin-5-yl]-phenyl}-acetamide]
not listed: Yes
≤ 10 µM: all other assays above

CCCS(=O)(=O)Nc1ccc(F)c(C(=O)c2c[nH]c3ncc(OC)cc23)c1F [Compound P-0806, Propane-1-sulfonic acid [2,4-difluoro-3-(5-methoxy-1H-pyrrolo[2,3-b]pyridine-3-carbonyl)-phenyl]-amide]
not listed: Yes
≤ 10 µM: all other assays above

O=C(c1ccccc1F)c1c[nH]c2ncc(-c3ccsc3)cc12 [Compound P-0134]
not listed: B-Raf
≤ 10 µM: all other assays above

CS(=O)(=O)c1cccc(-c2cnc3[nH]cc(C(=O)c4cccc(O)c4F)c3c2)c1 [Compound P-0026, (2-Fluoro-3-hydroxy-phenyl)-[5-(3-methanesulfonylphenyl)1H-pyrrolo[2,3-b]pyridin-3-yl]-methanone]
not listed: Yes
≤ 10 µM: all other assays above

NC(=O)c1cccc(-c2ccnc3[nH]cc(C(=O)c4cc(F)ccc4F)c23)c1 [Compound P-0049]
≤ 10 µM: B-Raf V600E | Yes

CS(=O)(=O)c1cccc(-c2ccnc3[nH]cc(C(=O)c4cc(F)ccc4F)c23)c1 [Compound P-0171]
not listed: Fms
≤ 10 µM: all other assays above

Nc1cccc(-c2cnc3[nH]cc(C(=O)c4cccc(O)c4F)c3c2)c1 [Compound P-0004, [5-(3-amino-phenyl)-1H-pyrrolo[2,3-b]pyridin-3-yl]-(2-fluoro-3-hydroxy-phenyl)methanone]
not listed: Yes
≤ 10 µM: all other assays above

OCCOc1ccc(F)c(Cc2c[nH]c3ncc(-c4cccnc4)cc23)c1F [Compound P-1394, 2-[2,4-Difluoro-3-(5-pyridin-3-yl-1H-pyrrolo[2,3-b]pyridin-3-ylmethyl)-phenoxy]-ethanol]
≤ 10 µM: B-Raf V600E | FGFR1 | Fms | Kit
